Results as given in patent US20210255193A1, “LYSINE REACTIVE PROBES AND USES THEREOF” (The Scripps Research Institute, priority 2017, published 2021).
Each block holds one compound with its values, some of them ahead of it.

Target: T1, TRAP1 Heat shock protein 75 kDa, mitochondrial (Homo sapiens, UniProt Q12931)
T1 construct: isoTOP-ABPP experiments performed in cell lysates (in vitro); endogenous in cells; host or cells: soluble proteome of human cancer cell lines (MDA-MB-231, Ramos, Jurkat)
T1 sequence (Q12931 60-704): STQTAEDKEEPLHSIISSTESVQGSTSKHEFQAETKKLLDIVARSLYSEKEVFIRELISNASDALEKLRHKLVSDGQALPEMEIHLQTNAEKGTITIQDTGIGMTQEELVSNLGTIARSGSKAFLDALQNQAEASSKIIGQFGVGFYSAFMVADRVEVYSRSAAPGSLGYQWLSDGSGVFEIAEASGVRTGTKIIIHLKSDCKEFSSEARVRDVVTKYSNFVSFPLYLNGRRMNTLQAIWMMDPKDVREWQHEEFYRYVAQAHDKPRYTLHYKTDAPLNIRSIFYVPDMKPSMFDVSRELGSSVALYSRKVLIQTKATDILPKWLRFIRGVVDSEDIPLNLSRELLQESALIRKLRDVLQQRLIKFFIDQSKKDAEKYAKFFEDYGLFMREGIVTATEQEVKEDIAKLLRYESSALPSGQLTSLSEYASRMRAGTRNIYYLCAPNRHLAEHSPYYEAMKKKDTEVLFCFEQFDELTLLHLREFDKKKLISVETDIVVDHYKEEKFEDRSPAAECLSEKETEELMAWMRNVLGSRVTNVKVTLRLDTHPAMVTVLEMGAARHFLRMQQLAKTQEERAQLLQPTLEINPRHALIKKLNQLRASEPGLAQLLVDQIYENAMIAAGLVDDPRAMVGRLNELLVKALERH
Assay: competitive isoTOP-ABPP
Type: binding
Conditions: for isoTOP-ABPP ratio (R) at liganded lysine Q12931_K699 / R value (DMSO/fragment) for probe 1 labeling / isoTOP-ABPP reactivity ratio at lysine Q12931_K699: 50 uM, in vitro; for isoTOP-ABPP ratio (R) at liganded lysine Q12931_K699: sol, 231; for R value (DMSO/fragment) for probe 1 labeling: Q12931_K699; for R value (DMSO/fragment) for probe 1 labeling / isoTOP-ABPP reactivity ratio at lysine Q12931_K699: 231 sol
How it was run: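 Lysate + fragment (50 μM activated ester / 100 μM guanidinylating agent) or DMSO → 0.1 mM STP-alkyne, 1 h, RT → CuAAC to TEV tags (compound light, DMSO heavy) → LC-MS. R = heavy/light MS1 area; liganded lysine if R≥4.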

SMILES: CC(C)(C)OC(=O)NCCCC(=O)Oc1ccc([N+](=O)[O-])cc1[N+](=O)[O-] [fragment 41, 2,4-Dinitrophenyl 4-((tert-butoxycarbonyl)amino)butanoate]
isoTOP-ABPP ratio (R) at liganded lysine Q12931_K699: 1.3

R value (DMSO/fragment) for probe 1 labeling: 1.1
SMILES: Cn1cc(CC(=O)Oc2c(F)c(F)c(F)c(F)c2F)c2ccccc21 [fragment 22, Pentafluorophenyl 2-(1-methyl-1H-indol-3-yl)acetate]

SMILES: O=C(Oc1ccc([N+](=O)[O-])cc1[N+](=O)[O-])c1ccc(-c2ccccc2)cc1 [fragment 37, 2,4-Dinitrophenyl [1,1′-biphenyl]-4-carboxylate]
isoTOP-ABPP ratio (R) at liganded lysine Q12931_K699: 0.9

SMILES: COc1cc(CCC(=O)Oc2ccc([N+](=O)[O-])cc2[N+](=O)[O-])cc(OC)c1OC [fragment 33, 2,4-Dinitrophenyl 3-(3,4,5-trimethoxyphenyl)propanoate]
isoTOP-ABPP reactivity ratio at lysine Q12931_K699: 1.5

R value (DMSO/fragment) for probe 1 labeling: 1.0
SMILES: O=C(Oc1c(F)c(F)c(F)c(F)c1F)C(c1ccccc1)c1ccccc1 [fragment 20, Pentafluorophenyl 2,2-diphenylacetate]

SMILES: O=C(Oc1ccc([N+](=O)[O-])cc1[N+](=O)[O-])c1ccc2ccccc2n1 [fragment 35, 2,4-Dinitrophenyl quinoline-2-carboxylate]
isoTOP-ABPP ratio (R) at liganded lysine Q12931_K699: 0.9

SMILES: O=C(CCc1ccc2c(c1)OCO2)Oc1ccc([N+](=O)[O-])cc1[N+](=O)[O-] [fragment 45, 2,4-Dinitrophenyl 3-(benzo[d][1,3]dioxol-5-yl)propanoate]
isoTOP-ABPP ratio, lysine Q12931_K699 (50 uM_231_sol_in vitro): 1.4

R value (DMSO/fragment) for probe 1 labeling: 1.0
SMILES: COc1cc(CCC(=O)Oc2c(F)c(F)c(F)c(F)c2F)cc(OC)c1OC [fragment 23, Pentafluorophenyl 3-(3,4,5-trimethoxyphenyl)propanoate]

SMILES: O=C(Oc1ccc([N+](=O)[O-])cc1[N+](=O)[O-])c1ccccc1Nc1cccc(C(F)(F)F)c1 [fragment 40, 2,4-Dinitrophenyl 2-((3-(trifluoromethyl)phenyl)amino)benzoate]
isoTOP-ABPP ratio (R) at liganded lysine Q12931_K699: 0.9

SMILES: O=C(ON1C(=O)CCC1=O)c1cc(C(F)(F)F)cc(C(F)(F)F)c1 [fragment 46, 3,5-Bis(trifluoromethyl)benzoic acid NHS ester]
isoTOP-ABPP ratio, lysine Q12931_K699 (50 uM_231_sol_in vitro): 0.9

SMILES: O=C(Oc1ccc([N+](=O)[O-])cc1[N+](=O)[O-])c1ccc(Oc2ccccc2)cc1 [fragment 39, 2,4-Dinitrophenyl 4-phenoxybenzoate]
isoTOP-ABPP ratio (R) at liganded lysine Q12931_K699: 0.9

isoTOP-ABPP reactivity ratio at lysine Q12931_K699: 0.9
SMILES: O=C(Oc1c(F)c(F)c(F)c(F)c1F)c1ccc2ccccc2n1 [fragment 25, Pentafluorophenyl quinoline-2-carboxylate]

SMILES: O=C(Oc1ccc([N+](=O)[O-])cc1[N+](=O)[O-])C(c1ccccc1)c1ccccc1 [fragment 30, 2,4-Dinitrophenyl 2,2-diphenylacetate]
isoTOP-ABPP reactivity ratio at lysine Q12931_K699: 4.1

SMILES: O=C(Oc1ccc([N+](=O)[O-])cc1[N+](=O)[O-])c1cc(C(F)(F)F)cc(C(F)(F)F)c1 [fragment 31, 2,4-Dinitrophenyl 3,5-bis(trifluoromethyl)benzoate]
isoTOP-ABPP reactivity ratio at lysine Q12931_K699: 1.0

isoTOP-ABPP reactivity ratio at lysine Q12931_K699: 0.7
SMILES: O=C(CN1C(=O)c2ccccc2C1=O)Oc1c(F)c(F)c(F)c(F)c1F [fragment 27, Pentafluorophenyl 2-(1,3-dioxoisoindolin-2-yl)acetate]

SMILES: CC(=O)Oc1ccc([N+](=O)[O-])cc1[N+](=O)[O-] [fragment 43, 2,4-Dinitrophenyl acetate]
isoTOP-ABPP ratio (R) at liganded lysine Q12931_K699: 1.0

SMILES: O=C(Oc1ccc([N+](=O)[O-])cc1[N+](=O)[O-])C(c1ccccc1)(c1ccccc1)c1ccccc1 [fragment 42, 2,4-Dinitrophenyl 2,2,2-triphenylacetate]
isoTOP-ABPP ratio (R) at liganded lysine Q12931_K699: 1.0

R value (DMSO/fragment) for probe 1 labeling: 0.9
SMILES: O=C(Oc1c(F)c(F)c(F)c(F)c1F)c1cc(C(F)(F)F)cc(C(F)(F)F)c1 [fragment 21, Pentafluorophenyl 3,5-bis(trifluoromethyl)benzoate]

SMILES: Cn1cc(CC(=O)Oc2ccc([N+](=O)[O-])cc2[N+](=O)[O-])c2ccccc21 [fragment 32, 2,4-Dinitrophenyl 2-(1-methyl-1H-indol-3-yl)acetate]
isoTOP-ABPP reactivity ratio at lysine Q12931_K699: 2.0

SMILES: O=C(CCc1cn(-c2ccccc2)nc1-c1ccccc1)Oc1ccc([N+](=O)[O-])cc1[N+](=O)[O-] [fragment 29, 2,4-Dinitrophenyl 3-(1,3-diphenyl-1H-pyrazol-4-yl)propanoate]
isoTOP-ABPP reactivity ratio at lysine Q12931_K699: 2.2

isoTOP-ABPP reactivity ratio at lysine Q12931_K699: 0.9
SMILES: O=C(Oc1c(F)c(F)c(F)c(F)c1F)C1CCN(C(=O)OCc2ccccc2)CC1 [fragment 24, 1-Benzyl 4-(pentafluorophenyl) piperidine-1,4-dicarboxylate]

isoTOP-ABPP ratio, lysine Q12931_K699 (50 uM_231_sol_in vitro): 1.2
SMILES: NC(=O)c1cc(C(F)(F)F)cc(C(F)(F)F)c1 [fragment 51, reference compound]

SMILES: N#Cc1ccc(C(=O)Oc2ccc([N+](=O)[O-])cc2[N+](=O)[O-])cc1 [fragment 44, 2,4-Dinitrophenyl 4-cyanobenzoate]
isoTOP-ABPP ratio, lysine Q12931_K699 (50 uM_231_sol_in vitro): 0.9

SMILES: O=C(Oc1ccc([N+](=O)[O-])cc1[N+](=O)[O-])C1CCN(C(=O)OCc2ccccc2)CC1 [fragment 34, 1-Benzyl 4-(2,4-dinitrophenyl) piperidine-1,4-dicarboxylate]
isoTOP-ABPP ratio (R) at liganded lysine Q12931_K699: 1.8

SMILES: O=C(CC12CC3CC(CC(C3)C1)C2)Oc1ccc([N+](=O)[O-])cc1[N+](=O)[O-] [fragment 38, 2,4-Dinitrophenyl 2-(adamantan-1-yl)acetate]
isoTOP-ABPP ratio (R) at liganded lysine Q12931_K699: 1.4

isoTOP-ABPP ratio, lysine Q12931_K699 (100 uM_231_sol_in vitro): 1.1
SMILES: CC(C)(C)OC(=O)N=C(NC(=O)OC(C)(C)C)n1cccn1 [fragment 50, reference compound]

SMILES: O=C(CCc1coc2cc(F)ccc2c1=O)Oc1ccc([N+](=O)[O-])cc1[N+](=O)[O-] [fragment 36, 2,4-Dinitrophenyl 3-(7-fluoro-4-oxo-4H-chromen-3-yl)propanoate]
isoTOP-ABPP ratio (R) at liganded lysine Q12931_K699: 1.7

isoTOP-ABPP ratio, lysine Q12931_K699 (50 uM_231_sol_in vitro): 1.1
SMILES: O=C(Oc1c(F)c(F)c(C(F)(F)F)c(F)c1F)c1cc(C(F)(F)F)cc(C(F)(F)F)c1 [fragment 47, 2,3,5,6-Tetrafluoro-4-(trifluoromethyl)phenyl 3,5-bis(trifluoromethyl)benzoate]

isoTOP-ABPP ratio, lysine Q12931_K699 (100 uM_231_sol_in vitro): 1.2
SMILES: COC(=O)NC(=NC(=O)OCC1c2ccccc2-c2ccccc21)n1cccn1 [fragment 49, N-Methoxycarbonyl-N′-9-fluorenylmethoxycarbonyl-pyrazole-1-carboxamidine]

isoTOP-ABPP reactivity ratio at lysine Q12931_K699: 0.9
SMILES: CCn1cc(C(=O)Oc2c(F)c(F)c(F)c(F)c2F)c(=O)c2ccc(C)nc21 [fragment 28, Pentafluorophenyl 1-ethyl-7-methyl-4-oxo-1,4-dihydro-1,8-naphthyridine-3-carboxylate]

R value (DMSO/fragment) for probe 1 labeling: 1.2
SMILES: O=C(CCc1cn(-c2ccccc2)nc1-c1ccccc1)Oc1c(F)c(F)c(F)c(F)c1F [fragment 19, Pentafluorophenyl 3-(1,3-diphenyl-1H-pyrazol-4-yl)propanoate]

isoTOP-ABPP ratio, lysine Q12931_K699 (50 uM_231_sol_in vitro): 1.0
SMILES: O=C(Oc1c(F)c(F)cc(F)c1F)c1cc(C(F)(F)F)cc(C(F)(F)F)c1 [fragment 48, 2,3,5,6-Tetrafluorophenyl 3,5-bis(trifluoromethyl)benzoate]
